Data taken from patent publication US11382892B2, “Method for administration” (Hoffmann-La Roche Inc., priority 2012, dated 2022).

Key:
[1] = system: human osteosarcoma cancer xenograft model SJSA1; assay: Antitumor activity (tumor volume, TGI, regression) in SJSA1 xenograft; format: in vivo, mice; conditions: for Full Regression / Partial Regression: 10 animals per group
Text: Efficacy data was graphically represented as the mean tumor volume*standard error of the mean (SEM). In addition, tumor volumes of treated groups were presented as percentages of tumor volumes of the control groups (% T/C), using the formula: 100×((T−T0)/(C−C0)), where T represented mean tumor volume of a treated group on a specific day during the experiment, T0 represented mean tumor volume of the same […] group on the first day of treatment; C represented mean tumor volume of a control group on the specific day during the experiment, and C0 represented mean tumor volume of the same […] group on the first day of treatment.
Tumor volume (in cubic millimeters) was calculated using the ellipsoid formula: (D×(d^2))/2, where “D” represents the large diameter of the tumor and “d” represents the small diameter. In some cases, tumor regression and/or percent change in tumor volume was calculated using the formula: ((T−T0)/T0)×100, where ‘T’ represents mean tumor volume of the treated group at a particular day, and ‘T0’ represents mean tumor volume of the same treated group at initiation of treatment.
(§1) All dose levels are reported as the actual dosage of Compound A rather than including drug plus polymer.
Female athymic Crl:NU-Foxn1nu mice (10/group), obtained from Charles River Laboratories (Wilmington, Del.) were utilized when they were approximately 10-12 weeks of age and weighed 23-25 g. The health of the mice was assessed daily by gross observation and analyses of blood samples taken from sentinel animals housed on shared shelf racks. All animals were allowed to acclimate and recover from any shipping-related stress for a minimum of 72 hours prior to experimental use. Autoclaved water and irradiated food (5058-ms Pico Lab mouse chow, Purina Mills, Richmond, Ind.) were provided ad libitum, and the animals were maintained on a 12 hour light and dark cycle. Cages, bedding and water bottles were autoclaved before use and changed weekly. All animal experiments were conducted in accordance with the Guide for the Care and Use of Laboratory Animals, local regulations, and protocols approved by the Roche Animal Care and Use Committee in an AAALAC accredited facility.
SJSA cells (ATCC) were maintained in RPMI 1640+10% (v/v) heat-inactivated FBS+i % (v/v) […] L-glutamine. Each mouse received 5×10^6 cells in a 1:1 mixture of phosphate buffered saline and Matrigel in a total volume of 0.2 ml. Cells were implanted subcutaneously in the right flank using a 1 cc syringe and a 26 gauge needle.
Treatment duration was 2-4 weeks. Dates of tumor implant, treatment initiation (study start date), and termination of treatment (study end date) can be found in Table 6 below. The starting tumor volume for this study was about 220 mm^3. Tumor volumes and animal body weights were measured three times per week and animals were monitored for clinical signs daily.

[2] = system: human acute myeloid leukemia xenograft model MOLM-13; assay: Survival / increase in life span in MOLM-13 xenograft; format: in vivo, mice; conditions: 80 mg/kg qd × 5 po
Description: For survival assessment, the percent of increased life space (ILS) was calculated as: 100×[(median survival day of treated group−median survival day of control group)/median survival day of control group]. Median survival was determined utilizing Kaplan Meier survival analysis. Survival in treated groups was statistically compared with the vehicle group and survival comparisons were done between groups using the log-rank test (Graph Pad Prism, La Jolla, Calif., USA). Differences between groups were considered significant when the probability value (p) was ≤0:05.
as §1
Female SCID:beige mice (10/group), obtained from Charles River Laboratories (Wilmington, Del.) were utilized when they were approximately 8-10 weeks of age and weighed 21-23 g. The health of the mice was assessed daily by gross observation and analyses of blood samples taken from sentinel animals housed on shared shelf racks. All animals were allowed to acclimate and recover from any shipping-related stress for a minimum of 72 hours prior to experimental use. […]
Treatment duration was initiated on day 3 and was for 2 weeks. Animal body weights were measured three times per week and animals were monitored for clinical signs daily.

[3] = 100 mg/kg QD po 2 on/12 off x 2
[4] = 200 mg/kg (two 100 mg/kg doses 8 hr apart) 1x/wk po

**Q.** With `COc1cc(C(=O)O)ccc1NC(=O)[C@@H]1N[C@@H](CC(C)(C)C)[C@](C#N)(c2ccc(Cl)cc2F)[C@H]1c1cccc(Cl)c1F` [Compound A, 4-{[(2R,3S,4R,5S)-4-(4-Chloro-2-fluoro-phenyl)-3-(3-chloro-2-fluoro-phenyl)-4-cyano-5-(2,2-dimethyl-propyl)-pyrrolidine-2-carbonyl]-amino}-3-methoxy-benzoic acid] as the compound, how does the “% Inhibition end of study Day: 32” value ([1]; 7.5 mg/kg QD po) read?
**A.** Its value is 66%.

**Q.** And the “% T/C End of Study Day: 32” value ([1]; 7.5 mg/kg QD po)?
**A.** Its value is 34%.

**Q.** What about the “Mean Tumor Volume (mm3) End Study Day: 32” value (“Mean Tumor Volume” below) ([1]; 7.5 mg/kg QD po) of the same compound?
**A.** Its value is 18.01 mm3.

**Q.** And the “Full Regression” value ([1]; 7.5 mg/kg QD po)?
**A.** The value was 0.

**Q.** What about the “Partial Regression” value ([1]; 7.5 mg/kg QD po) of the same compound?
**A.** Its value is 0.

**Q.** And the “% Inhibition end of study Day: 32” value ([1]; 15 mg/kg QD po)?
**A.** The value was 79%.

**Q.** And the “% T/C End of Study Day: 32” value ([1]; 15 mg/kg QD po)?
**A.** Its value is 21%.

**Q.** And the “Mean Tumor Volume” value ([1]; 15 mg/kg QD po)?
**A.** The value was 16.42 mm3.

**Q.** What about the “Full Regression” value ([1]; 15 mg/kg QD po) of the same compound?
**A.** The value was 0.

**Q.** And the “Partial Regression” value ([1]; 15 mg/kg QD po)?
**A.** Its value is 0.

**Q.** What about the “% Inhibition end of study Day: 32” value ([1]; 20 mg/kg QD po 20 on/8 off) of the same compound?
**A.** The value was 98%.

**Q.** What about the “% T/C End of Study Day: 32” value ([1]; 20 mg/kg QD po 20 on/8 off) of the same compound?
**A.** The value was 2%.

**Q.** What about the “Mean Tumor Volume” value ([1]; 20 mg/kg QD po 20 on/8 off) of the same compound?
**A.** Its value is 315.19 mm3.

**Q.** And the “Full Regression” value ([1]; 20 mg/kg QD po 20 on/8 off)?
**A.** Its value is 0.

**Q.** And the “Partial Regression” value ([1]; 20 mg/kg QD po 20 on/8 off)?
**A.** Its value is 5.

**Q.** What about the “% Inhibition end of study Day: 32” value ([1]; 30 mg/kg QD po) of the same compound?
**A.** Its value is “regression”.

**Q.** What about the “% T/C End of Study Day: 32” value ([1]; 30 mg/kg QD po) of the same compound?
**A.** The value was −1%.

**Q.** And the “Average % Regression per Group” value ([1]; 30 mg/kg QD po)?
**A.** Its value is 13%.

**Q.** What about the “Mean Tumor Volume” value ([1]; 30 mg/kg QD po) of the same compound?
**A.** The value was 19.35 mm3.

**Q.** What about the “Full Regression” value ([1]; 30 mg/kg QD po) of the same compound?
**A.** The value was 0.

**Q.** What about the “Partial Regression” value ([1]; 30 mg/kg QD po) of the same compound?
**A.** The value was 7.

**Q.** What about the “% Inhibition end of study Day: 32” value ([1]; 50 mg/kg 1x/wk po) of the same compound?
**A.** The value was 57%.

**Q.** And the “% T/C End of Study Day: 32” value ([1]; 50 mg/kg 1x/wk po)?
**A.** Its value is 43%.

**Q.** What about the “Mean Tumor Volume” value ([1]; 50 mg/kg 1x/wk po) of the same compound?
**A.** Its value is 22.66 mm3.

**Q.** And the “Full Regression” value ([1]; 50 mg/kg 1x/wk po)?
**A.** The value was 0.

**Q.** What about the “Partial Regression” value ([1]; 50 mg/kg 1x/wk po) of the same compound?
**A.** The value was 0.

**Q.** What about the “% Inhibition end of study Day: 32” value ([1]; 50 mg/kg QD po 2 on/5 off x 4) of the same compound?
**A.** The value was 99%.

**Q.** What about the “% T/C End of Study Day: 32” value ([1]; 50 mg/kg QD po 2 on/5 off x 4) of the same compound?
**A.** Its value is 1%.

**Q.** What about the “Mean Tumor Volume” value ([1]; 50 mg/kg QD po 2 on/5 off x 4) of the same compound?
**A.** Its value is 257.29 mm3.

**Q.** What about the “Full Regression” value ([1]; 50 mg/kg QD po 2 on/5 off x 4) of the same compound?
**A.** Its value is 0.

**Q.** And the “Partial Regression” value ([1]; 50 mg/kg QD po 2 on/5 off x 4)?
**A.** Its value is 3.

**Q.** What about the “% Inhibition end of study Day: 32” value ([1]; 50 mg/kg QD po 4 on/10 off x 2) of the same compound?
**A.** The value was 99%.

**Q.** And the “% T/C End of Study Day: 32” value ([1]; 50 mg/kg QD po 4 on/10 off x 2)?
**A.** Its value is 1%.

**Q.** And the “Mean Tumor Volume” value ([1]; 50 mg/kg QD po 4 on/10 off x 2)?
**A.** Its value is 244.70 mm3.

**Q.** What about the “Full Regression” value ([1]; 50 mg/kg QD po 4 on/10 off x 2) of the same compound?
**A.** Its value is 0.

**Q.** And the “Partial Regression” value ([1]; 50 mg/kg QD po 4 on/10 off x 2)?
**A.** Its value is 6.

**Q.** And the “% Inhibition end of study Day: 32” value ([1]; 80 mg/kg QD po 5 on/23 off)?
**A.** Its value is “regression”.

**Q.** What about the “% T/C End of Study Day: 32” value ([1]; 80 mg/kg QD po 5 on/23 off) of the same compound?
**A.** Its value is −2%.

**Q.** What about the “Average % Regression per Group” value ([1]; 80 mg/kg QD po 5 on/23 off) of the same compound?
**A.** Its value is 35%.

**Q.** What about the “Mean Tumor Volume” value ([1]; 80 mg/kg QD po 5 on/23 off) of the same compound?
**A.** Its value is 128.05 mm3.

**Q.** What about the “Full Regression” value ([1]; 80 mg/kg QD po 5 on/23 off) of the same compound?
**A.** Its value is 2.

**Q.** What about the “Partial Regression” value ([1]; 80 mg/kg QD po 5 on/23 off) of the same compound?
**A.** Its value is 6.

**Q.** And the “% Inhibition end of study Day: 32” value ([1]; 100 mg/kg 1x/wk po)?
**A.** Its value is 94%.

**Q.** What about the “% T/C End of Study Day: 32” value ([1]; 100 mg/kg 1x/wk po) of the same compound?
**A.** Its value is 6%.

**Q.** What about the “Mean Tumor Volume” value ([1]; 100 mg/kg 1x/wk po) of the same compound?
**A.** The value was 474.73 mm3.

**Q.** And the “Full Regression” value ([1]; 100 mg/kg 1x/wk po)?
**A.** The value was 0.

**Q.** And the “Partial Regression” value ([1]; 100 mg/kg 1x/wk po)?
**A.** The value was 1.

**Q.** What about the “% Inhibition end of study Day: 32” value ([1]; 100 mg/kg QD po 2 on/5 off x 4) of the same compound?
**A.** The value was “regression”.

**Q.** And the “% T/C End of Study Day: 32” value ([1]; 100 mg/kg QD po 2 on/5 off x 4)?
**A.** The value was −2%.

**Q.** And the “Average % Regression per Group” value ([1]; 100 mg/kg QD po 2 on/5 off x 4)?
**A.** The value was 47%.

**Q.** What about the “Mean Tumor Volume” value ([1]; 100 mg/kg QD po 2 on/5 off x 4) of the same compound?
**A.** The value was 25.68 mm3.

**Q.** What about the “Full Regression” value ([1]; 100 mg/kg QD po 2 on/5 off x 4) of the same compound?
**A.** Its value is 0.

**Q.** What about the “Partial Regression” value ([1]; 100 mg/kg QD po 2 on/5 off x 4) of the same compound?
**A.** Its value is 9.

**Q.** What about the “% Inhibition end of study Day: 32” value [1, 3] of the same compound?
**A.** Its value is “regression”.

**Q.** What about the “% T/C End of Study Day: 32” value [1, 3] of the same compound?
**A.** The value was 0%.

**Q.** And the “Average % Regression per Group” value [1, 3]?
**A.** The value was 11%.

**Q.** And the “Mean Tumor Volume” value [1, 3]?
**A.** Its value is 179.88 mm3.

**Q.** And the “Full Regression” value [1, 3]?
**A.** The value was 0.

**Q.** What about the “Partial Regression” value [1, 3] of the same compound?
**A.** Its value is 7.

**Q.** And the “% Inhibition end of study Day: 32” value [1, 4]?
**A.** Its value is “regression”.

**Q.** And the “% T/C End of Study Day: 32” value [1, 4]?
**A.** Its value is −1%.

**Q.** What about the “Average % Regression per Group” value [1, 4] of the same compound?
**A.** Its value is 29%.

**Q.** And the “Mean Tumor Volume” value [1, 4]?
**A.** The value was 158.95 mm3.

**Q.** And the “Full Regression” value [1, 4]?
**A.** Its value is 0.

**Q.** And the “Partial Regression” value [1, 4]?
**A.** The value was 7.

**Q.** What about the “growth inhibitory activity (FIG. 1)” value ([1]; 5 day on/23 day off treatment schedule) of the same compound?
**A.** Its value is “good growth inhibitory activity”.

**Q.** And the “% ILS” value [2]?
**A.** The value was 37%.

**Q.** What about the “50% Treatment Days (median survival)” value ([2]; vehicle 21 days) of the same compound?
**A.** Its value is 28 days.
